# Measurements taken from patent US20030008913A1, “Derivatives of 2,2-dimethyl 3(2-fluoro vinyl) cyclopropane carboxylic acid, their preparation process and their use as pesticides” (priority 1997, published 2003).
# Tested on: Blattela
# Experiment: Knockdown-effect against Blattela in a windtunnel (comparative example)
# Format: in vivo
# Conditions: Rate 0.003% w/v in 80% OPD 120 acetone mixture
# Procedure: The knockdown-effect at 30 seconds and 2 minutes of the compounds of Examples 14, 27, 43 and lmiprothrin, a commercially used pyrethroid, against Blattela was assessed.
# The tests were carried out in a windtunnel. The active ingredient was diluted to 0.003% w/v in an 80% OPD 120 acetone mixture. Controls (i.e., sprayed with the carrier liquid alone) were inserted at the beginning of the test, and twice at the end.
structure (smiles),measurement,setting,value
C#CCN1CC(=O)N(COC(=O)[C@@H]2C(C=C(C)C)C2(C)C)C1=O (mixture of isomers) [Imiprothrin],knockdown-effect at 30 sec.,30 sec.,0%
same,knockdown-effect at 2 min,2 min,10%
